Measured values: PubChem BioAssay (NCI)
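Assay format: 96-well plates, 48-hour exposure. TGI: concentration producing complete growth inhibition.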

Assays:
Test in all cases: inhibition of tumour cell growth, NCI panel, 48 h
HCT-116 colon = tested on: HCT-116 colon
HL-60(TB) leukemia = tested on: HL-60(TB) leukemia
KM12 colon = tested on: KM12 colon
MALME-3M melanoma = tested on: MALME-3M melanoma
SF-268 CNS = tested on: SF-268 CNS
SF-295 CNS = tested on: SF-295 CNS
SK-MEL-2 melanoma = tested on: SK-MEL-2 melanoma
TK-10 renal = tested on: TK-10 renal
U251 CNS = tested on: U251 CNS
UO-31 renal = tested on: UO-31 renal

SMILES | TGI (HCT-116 colon) [µM] | TGI (HL-60(TB) leukemia) [µM] | TGI (KM12 colon) [µM] | TGI (MALME-3M melanoma) [µM] | TGI (SF-268 CNS) [µM] | TGI (SF-295 CNS) [µM] | TGI (SK-MEL-2 melanoma) [µM] | TGI (TK-10 renal) [µM] | TGI (U251 CNS) [µM] | TGI (UO-31 renal) [µM]
CC(C)Oc1cc2c(cc1O)CC[C@@H]1[C@@H]2CC[C@]2(C)[C@@H](O)CC[C@@H]12 | 14.7 | > 38.1 | 16.5 | 27.3 | 51.7 | 11.8 | > 24.8 | 54.6 | 24.4 | 46.6
COC(=O)c1c(C)cccc1C1CN=NC12Cc1cccc(C)c1C2=O (stereo not given) | > 100 | 33.6 | > 100 | 87.2 | > 100 | – | 94.7 | > 100 | > 100 | 67.7
Cc1cccc(=O)c([O-])c1.Cc1cccc(=O)c([O-])c1.Cc1cccc(=O)c([O-])c1.Cc1cccc(=O)c([O-])c1.[Th+4] | 35 | 4.18 | > 72.7 | > 100 | > 100 | > 100 | 97.5 | > 100 | > 100 | > 100
NC(=O)CC[C@H]1C(=O)N=C(N)N1C(=O)OCc1ccccc1 | > 100 | > 100 | > 100 | > 100 | > 100 | > 100 | > 100 | > 100 | > 100 | > 100
COc1ccc(C2C3=CONC3CC3CCCCC32)cc1 (stereo not given) | > 100 | > 100 | – | > 100 | > 100 | – | > 100 | > 100 | > 100 | > 100
C=C(C)[C@@H]1CC[C@]2(C(=O)OC3OC(COC4OC(CO)C(OC5OC(C)C(O)C(O)C5O)C(O)C4O)C(O)C(O)C3O)CC[C@]3(C)[C@H](CC[C@@H]4[C@@]5(C)CC[C@H](O)[C@@](C)(CO)[C@@H]5CC[C@]43C)[C@@H]12 (stereo not given in full) | > 6.75 | 1.13 | > 10 | > 10 | 9.89 | > 8.59 | 6.22 | > 10 | > 10 | > 10
CCCC(CC)c1cc(O)c(O)cc1C(CC)CCC (stereo not given) | > 10 | > 10 | > 10 | > 10 | > 10 | > 10 | > 10 | > 10 | > 10 | > 10
O=P1(N(CCCl)CCCl)NCCCO1 (stereo not given) | > 250 | 220 | > 238 | > 250 | > 250 | > 246 | > 238 | > 250 | > 250 | > 250
COC(C[C@H]1CCCC[C@]1(O)/C(=C\CO[Si](C(C)C)(C(C)C)C(C)C)Sc1ccccc1)OC | 85.1 | > 100 | > 100 | 86.4 | > 100 | > 100 | 49.9 | > 100 | 51.8 | > 100
Cc1ccc(Cl)c2c(=O)cc(-c3ccccc3)[nH]c12 | > 100 | > 100 | > 100 | > 100 | > 100 | > 100 | > 100 | > 100 | > 100 | > 100
COC(=O)NC(Nc1ccc(C)cc1)(C(F)(F)F)C(F)(F)F | > 100 | > 100 | > 100 | > 100 | > 100 | > 100 | > 100 | > 100 | > 100 | > 100
COc1ccccc1NC(=O)CSC(N)=O | 36.6 | > 100 | > 100 | > 100 | > 100 | > 100 | 61.4 | > 100 | 66.2 | –
CCC(=O)Nc1ccc(N2C(=O)/C(=C/c3ccc(O)c(OC)c3)N=C2c2ccccc2)cc1 | > 100 | > 100 | > 100 | > 100 | > 100 | > 100 | 93.5 | – | – | > 100
N#C[C@H]1C(=O)C(c2nc3ccccc3[nH]2)S[C@H]1c1ccccc1 (stereo not given in full) | > 100 | > 100 | > 100 | > 100 | – | 86.2 | – | > 100 | 57.2 | 78.8
CCOC(=O)/C(C1=N[C@H](C(=O)OCC)CS1)=C(\O)c1ccccc1 | > 100 | > 100 | > 100 | > 100 | > 100 | > 100 | > 100 | – | > 100 | > 100
C/C(=N\NC(=O)c1ccncc1)c1cccc(C(F)(F)F)c1 | – | > 10 | > 10 | > 10 | > 10 | – | – | > 10 | > 10 | > 10
O=C1/C(=C/c2cccs2)N=C(c2ccccc2)N1c1nc2ccccc2s1 | > 100 | > 100 | > 100 | – | 29.8 | > 100 | > 100 | > 100 | > 100 | > 100

SMILES | TGI (HCT-116 colon) [µM] | TGI (HL-60(TB) leukemia) [µM] | TGI (KM12 colon) [µM] | TGI (MALME-3M melanoma) [µM] | TGI (SF-268 CNS) [µM] | TGI (SF-295 CNS) [µM] | TGI (SK-MEL-2 melanoma) [µM] | TGI (TK-10 renal) [µM] | TGI (U251 CNS) [µM] | TGI (UO-31 renal) [µM]
Cc1ccc(C(=O)NN=C(/N=N/c2cccc(C)c2)c2ccc(N(C)C)cc2)cc1 | > 100 | > 100 | > 100 | – | > 100 | > 100 | > 100 | > 100 | > 100 | > 100
O=C1c2ccccc2C2(c3ccc(Cl)cc3)N[C@@H]3CCCC[C@@H]3N12 (stereo not given in full) | > 100 | > 100 | > 100 | – | > 100 | > 100 | > 100 | > 100 | > 100 | > 100
CCCCN(CCCC)C1=Nc2ccccc2-n2c(nnc2C(=O)OCC)C1 | > 100 | 40.9 | > 100 | 82.1 | > 100 | > 100 | – | > 100 | – | > 100
CC(=O)OCC1(CNc2nc(N)ncc2C#N)CC(CCc2ccccc2)C1 (stereo not given) | > 100 | > 100 | > 100 | > 100 | > 100 | > 100 | > 100 | – | > 100 | > 100
CC(C)(C)C(=O)O[C@H]1C=C[C@@H](O)[C@@H]2[C@H]1[C@@H]1C=C[C@H]2C1 | > 100 | 33.8 | 12.4 | – | > 100 | > 100 | > 100 | > 100 | > 100 | > 100
O=C(NCCNCCO)N/N=C/c1ccccc1 | > 100 | > 100 | > 100 | > 100 | > 100 | > 100 | > 100 | > 100 | > 100 | –
O=C(c1ccccc1)c1ccc2nc(-c3c(Cl)c(Cl)c(Cl)c(Cl)c3C(=O)Nc3ccco3)[nH]c2c1 | > 100 | 98.3 | > 100 | – | > 100 | > 100 | 80.4 | > 100 | > 100 | > 100
COc1cccc(OC/C(N=Cc2ccncc2)=N/NC(=O)c2ccncc2)c1 | > 100 | > 100 | > 100 | > 100 | > 100 | > 100 | > 100 | > 100 | > 100 | –
Cc1sc2nc3n(sc4nc5sc(C)c(C)c5c(=O)n43)c(=O)c2c1C | > 100 | > 100 | > 100 | – | > 100 | > 100 | > 100 | > 100 | > 100 | > 100
CCCOC1OC(CS(=O)(=O)O)C(OC(C)=O)C(OC(C)=O)C1OC(C)=O (stereo not given) | > 100 | > 100 | > 100 | > 100 | – | > 100 | > 100 | > 100 | > 100 | > 100
CCOC(=O)NC(OCc1ccccc1)(C(=O)OC)C(F)(F)F (stereo not given) | > 100 | > 100 | > 100 | – | > 100 | > 100 | > 100 | > 100 | > 100 | > 100
O=C1/C(=C/C=C/c2ccccc2)CCC1CNc1ccc(Br)cc1 (stereo not given) | > 100 | > 100 | > 100 | 0.246 | > 100 | > 100 | – | > 100 | > 100 | > 100
Cc1cn(C2CC(SCCO)C(CO)O2)c(=O)[nH]c1=O (stereo not given) | > 100 | > 100 | > 100 | > 100 | > 100 | > 100 | > 100 | – | > 100 | > 100
O=C1C(Cl)C(c2cccc(O)c2)N1n1cnc2ccccc2c1=O (stereo not given) | > 100 | > 100 | – | > 100 | > 100 | > 100 | > 100 | > 100 | > 100 | > 100
NNc1nnc(-c2ccccc2)nc1Cc1ccccc1 | > 100 | 38 | > 100 | 26.3 | > 100 | – | > 100 | > 100 | > 100 | 31.6
COc1c(-c2ccc(F)cc2)oc2cc(O)cc(O)c2c1=O | > 100 | 70.1 | 98.4 | 61.1 | > 100 | 83.9 | 64.3 | – | 97.5 | 42.1
